Columns and labels:
Assay in all cases: relative viability (nuclei count vs DMSO), 5 days (fraction); higher = more cells survive
[1] = compound: C1CN(CCC1C(C2=CC3=C(C=C2)OCO3)(C4=CC5=C(C=C4)OCO5)O)C(=O)OC6=CC=C(C=C6)[N+](=O)[O-] [JZL-184] + CC(=O)Nc1cccc(-n2c(=O)n(C3CC3)c(=O)c3c(Nc4ccc(I)cc4F)n(C)c(=O)c(C)c32)c1 [Trametinib] (partner 0.02 µM)
Method in brief: (§1)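 Cells from lung cancer lines were seeded into 1536-well plates and, one day later, dosed by pin tool. Treatments were either a single drug or a fixed dose of an anchor drug with five library-drug doses (not always all listed) in √10 steps. After 5 days, nuclei were stained in a one-step fixation (final 0.05% Triton X-100, 1% formaldehyde, 1 ug/ml Hoechst) and counted on 4× images, and relative viability is the treated-to-vehicle nuclei ratio, as the median of duplicate plates.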

[2] = compound: C1CN(CCC1C(C2=CC3=C(C=C2)OCO3)(C4=CC5=C(C=C4)OCO5)O)C(=O)OC6=CC=C(C=C6)[N+](=O)[O-] [JZL-184] + CC1(C)CCC(c2ccc(Cl)cc2)=C(CN2CCN(c3ccc(C(=O)NS(=O)(=O)c4ccc(N[C@H](CCN5CCOCC5)CSc5ccccc5)c(S(=O)(=O)C(F)(F)F)c4)cc3)CC2)C1 [Navitoclax] (partner 0.5 µM)
Method in brief: as §1

[3] = compound: C1CN(CCC1C(C2=CC3=C(C=C2)OCO3)(C4=CC5=C(C=C4)OCO5)O)C(=O)OC6=CC=C(C=C6)[N+](=O)[O-] [JZL-184] + COc1cccc2cc(-c3nc([C@H]4CC[C@H](C(=O)O)CC4)n4ncnc(N)c34)[nH]c12 [OSI-027] (partner 0.5 µM)
Method in brief: as §1

[4] = compound: C1CN(CCC1C(C2=CC3=C(C=C2)OCO3)(C4=CC5=C(C=C4)OCO5)O)C(=O)OC6=CC=C(C=C6)[N+](=O)[O-] [JZL-184] + Cc1cc(Nc2cc(N3CCN(C)CC3)nc(Sc3ccc(NC(=O)C4CC4)cc3)n2)n[nH]1 [Tozasertib] (partner 0.1 µM)
Method in brief: as §1

[5] = compound: C1CN(CCC1C(C2=CC3=C(C=C2)OCO3)(C4=CC5=C(C=C4)OCO5)O)C(=O)OC6=CC=C(C=C6)[N+](=O)[O-] [JZL-184] + O=C(c1cc(Cc2n[nH]c(=O)c3ccccc23)ccc1F)N1CCN(C(=O)C2CC2)CC1 [Olaparib] (partner 8 µM)
Method in brief: as §1

Cell Line | relative viability ([1]; first compound 0.04 µM) | relative viability ([1]; first compound 0.4 µM) | relative viability ([1]; first compound 1.265 µM) | relative viability ([1]; first compound 4 µM) | relative viability ([2]; first compound 0.04 µM) | relative viability ([2]; first compound 0.4 µM) | relative viability ([2]; first compound 1.265 µM) | relative viability ([2]; first compound 4 µM) | relative viability ([3]; first compound 0.04 µM) | relative viability ([3]; first compound 0.4 µM) | relative viability ([3]; first compound 1.265 µM) | relative viability ([3]; first compound 4 µM) | relative viability ([4]; first compound 0.04 µM) | relative viability ([4]; first compound 0.4 µM) | relative viability ([4]; first compound 1.265 µM) | relative viability ([4]; first compound 4 µM) | relative viability ([5]; first compound 0.04 µM) | relative viability ([5]; first compound 0.4 µM) | relative viability ([5]; first compound 1.265 µM) | relative viability ([5]; first compound 4 µM)
LOU-NH91 | 0.793 | 0.754 | 0.848 | 0.754 | 0.763 | 0.71 | 0.886 | 0.718 | 0.742 | 0.684 | 0.788 | 0.712 | 0.806 | 0.727 | 0.798 | 0.629 | 1 | 0.902 | 0.957 | 0.889
LU99A | 0.574 | 0.469 | 0.607 | 0.638 | 0.714 | 0.588 | 0.804 | 0.463 | 0.327 | 0.293 | 0.269 | 0.284 | 0.283 | 0.299 | 0.317 | 0.285 | 0.256 | 0.277 | 0.254 | 0.225
LXF-289 | 0.789 | 0.604 | 0.668 | 0.668 | 0.973 | 0.832 | 0.91 | 0.928 | 0.819 | 0.776 | 0.927 | 0.734 | 0.221 | 0.206 | 0.198 | 0.22 | 1.16 | 1.06 | 1.01 | 0.975
NCI-H23 | 0.409 | – | 0.358 | 0.392 | 1.01 | 0.63 | 0.837 | 0.777 | 0.529 | 0.538 | 0.656 | 0.65 | 0.375 | 0.307 | 0.414 | 0.316 | 0.388 | – | 0.303 | 0.366
